Results as given in PubChem BioAssay AID1919005 (Molecular Pharmacology Branch, DTP, NCI, 2023).
“And” between values parts separate entries of the source, which are not always exact repeats. Identical values can stand only once. Each block holds one compound with its values, some of them ahead of it.

Test system: 855422-203-R-J1-PDC complex spheroid growth
Test: Anticancer human tumor 855422-203-R-J1-PDC patient-derived bladder carcinoma cell line growth inhibition [AhR]
Conditions: for viability, T/C: stronger effect = lower value
Method in brief: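 Agents were dosed in half-log steps down from roughly clinical Cmax, or from 10 microM where Cmax was unknown, alone and with AhR antagonists. Read-out: percent test/control growth of tumor spheroids containing HUVEC and MSC stromal cells.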

[1] = curve of first compound, second compound 0.1 µM
[2] = curve of first compound, second compound 0.316 µM
[3] = curve of first compound, second compound 1 µM
[4] = curve of first compound, second compound 3.16 µM
[5] = curve of first compound, second compound 10 µM
[6] = second compound 0.1 µM, first compound 0.0316 µM
[7] = second compound 0.1 µM, first compound 0.1 µM
[8] = second compound 0.1 µM, first compound 0.316 µM
[9] = second compound 0.1 µM, first compound 1 µM
[10] = second compound 0.1 µM, first compound 3.16 µM
[11] = second compound 0.1 µM, first compound 10 µM
[12] = second compound 0.316 µM, first compound 0.0316 µM
[13] = second compound 0.316 µM, first compound 0.1 µM
[14] = second compound 0.316 µM, first compound 0.316 µM
[15] = second compound 0.316 µM, first compound 1 µM
[16] = second compound 0.316 µM, first compound 3.16 µM
[17] = second compound 0.316 µM, first compound 10 µM
[18] = second compound 1 µM, first compound 0.0316 µM
[19] = second compound 1 µM, first compound 0.1 µM
[20] = second compound 1 µM, first compound 0.316 µM
[21] = second compound 1 µM, first compound 1 µM
[22] = second compound 1 µM, first compound 3.16 µM
[23] = second compound 1 µM, first compound 10 µM
[24] = second compound 3.16 µM, first compound 0.0316 µM
[25] = second compound 3.16 µM, first compound 0.1 µM
[26] = second compound 3.16 µM, first compound 0.316 µM
[27] = second compound 3.16 µM, first compound 1 µM
[28] = second compound 3.16 µM, first compound 3.16 µM
[29] = second compound 3.16 µM, first compound 10 µM
[30] = second compound 10 µM, first compound 0.0316 µM
[31] = second compound 10 µM, first compound 0.1 µM
[32] = second compound 10 µM, first compound 0.316 µM
[33] = second compound 10 µM, first compound 1 µM
[34] = second compound 10 µM, first compound 3.16 µM
[35] = second compound 10 µM, first compound 10 µM
[36] = second compound 0.1 µM, first compound 0.00316 µM
[37] = second compound 0.1 µM, first compound 0.01 µM
[38] = second compound 0.316 µM, first compound 0.00316 µM
[39] = second compound 0.316 µM, first compound 0.01 µM
[40] = second compound 1 µM, first compound 0.00316 µM
[41] = second compound 1 µM, first compound 0.01 µM
[42] = second compound 3.16 µM, first compound 0.00316 µM
[43] = second compound 3.16 µM, first compound 0.01 µM
[44] = second compound 10 µM, first compound 0.00316 µM
[45] = second compound 10 µM, first compound 0.01 µM
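Further: spheroids exposed to agents for seven days before readout.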
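Wherever viability, T/C is given: percent of DMSO vehicle control luminescence viability.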

IC50 [1]: < 31.6 nM
IC50 [2]: < 31.6 nM
IC50 [3]: < 31.6 nM
IC50 [4]: < 31.6 nM
IC50 [5]: < 31.6 nM
SMILES: COc1cccc2c1C(=O)c1c(O)c3c(c(O)c1C2=O)CC(O)(C(=O)CO)CC3OC1CC(N)C(O)C(C)O1 (configuration not stated) + CC(CO)NC(=O)c1cc(-c2ccc(Cl)cc2)nn(-c2cnn(C)c2)c1=O
viability, T/C [6]: 34.3%
viability, T/C [7]: 21.9%
viability, T/C [8]: 4.3%
viability, T/C [9]: 1.57%
viability, T/C [10]: 1.7%
viability, T/C [11]: 2.88%
viability, T/C [12]: 31.6%
viability, T/C [13]: 21.3%
viability, T/C [14]: 3.51%
viability, T/C [15]: 1.36%
viability, T/C [16]: 1.02%
viability, T/C [17]: 2.82%
viability, T/C [18]: 37.7%
viability, T/C [19]: 21.3%
viability, T/C [20]: 3.4%
viability, T/C [21]: 1.68%
viability, T/C [22]: 0.81%
viability, T/C [23]: 3.37%
viability, T/C [24]: 32%
viability, T/C [25]: 17.5%
viability, T/C [26]: 2.92%
viability, T/C [27]: 1.21%
viability, T/C [28]: 0.84%
viability, T/C [29]: 4.27%
viability, T/C [30]: 32.9%
viability, T/C [31]: 17.8%
viability, T/C [32]: 2.64%
viability, T/C [33]: 0.53%
viability, T/C [34]: 0.94%
viability, T/C [35]: 5.77%

IC50 [1]: 6310 nM
IC50 [2]: 6250 nM
IC50 [3]: 6860 nM
IC50 [4]: 6010 nM
IC50 [5]: 4290 nM
SMILES: Nc1ccccc1NC(=O)c1ccc(CNC(=O)OCc2cccnc2)cc1 + Cc1ccccc1N=Nc1ccc(NC(=O)c2ccnn2C)c(C)c1
viability, T/C [6]: 101%
viability, T/C [7]: 106%
viability, T/C [8]: 100%
viability, T/C [9]: 107%
viability, T/C [10]: 78.4%
viability, T/C [11]: 31.1%
viability, T/C [12]: 103%
viability, T/C [13]: 101%
viability, T/C [14]: 104%
viability, T/C [15]: 107%
viability, T/C [16]: 84%
viability, T/C [17]: 26.5%
viability, T/C [18]: 106%
viability, T/C [19]: 105%
viability, T/C [20]: 109%
viability, T/C [21]: 111%
viability, T/C [22]: 91.2%
viability, T/C [23]: 29.8%
viability, T/C [24]: 97.4%
viability, T/C [25]: 92.7%
viability, T/C [26]: 92.1%
viability, T/C [27]: 98%
viability, T/C [28]: 86.2%
viability, T/C [29]: 21.1%
viability, T/C [30]: 85.3%
viability, T/C [31]: 84.3%
viability, T/C [32]: 87.4%
viability, T/C [33]: 86.3%
viability, T/C [34]: 61.6%
viability, T/C [35]: 18.2%

IC50 [1]: 60.2 nM
IC50 [2]: 58.6 nM
IC50 [3]: 56.4 nM
IC50 [4]: 54.7 nM
IC50 [5]: 45.1 nM
SMILES: CC[C@@]1(O)C(=O)OCc2c1cc1n(c2=O)Cc2cc3c(CN(C)C)c(O)ccc3nc2-1 + CC(CO)NC(=O)c1cc(-c2ccc(Cl)cc2)nn(-c2cnn(C)c2)c1=O
viability, T/C (second compound 0.1 µM, first compound 0.000316 µM): 96.7%
viability, T/C (second compound 0.1 µM, first compound 0.001 µM): 97.5%
viability, T/C [36]: 93.7%
viability, T/C [37]: 102%
viability, T/C [6]: 86.5%
viability, T/C [7]: 20.9%
viability, T/C (second compound 0.316 µM, first compound 0.000316 µM): 106%
viability, T/C (second compound 0.316 µM, first compound 0.001 µM): 100%
viability, T/C [38]: 98.8%
viability, T/C [39]: 98.9%
viability, T/C [12]: 87.3%
viability, T/C [13]: 17.9%
viability, T/C (second compound 1 µM, first compound 0.000316 µM): 104%
viability, T/C (second compound 1 µM, first compound 0.001 µM): 97.8%
viability, T/C [40]: 105%
viability, T/C [41]: 104%
viability, T/C [18]: 84.9%
viability, T/C [19]: 15.5%
viability, T/C (second compound 3.16 µM, first compound 0.000316 µM): 99.4%
viability, T/C (second compound 3.16 µM, first compound 0.001 µM): 96.6%
viability, T/C [42]: 93%
viability, T/C [43]: 95.5%
viability, T/C [24]: 83.5%
viability, T/C [25]: 13%
viability, T/C (second compound 10 µM, first compound 0.000316 µM): 86.2%
viability, T/C (second compound 10 µM, first compound 0.001 µM): 100%
viability, T/C [44]: 102%
viability, T/C [45]: 96.3%
viability, T/C [30]: 65.8%
viability, T/C [31]: 14.8%

IC50 [1]: > 1000 nM
IC50 [2]: > 1000 nM
IC50 [3]: > 1000 nM
IC50 [4]: > 1000 nM
IC50 [5]: > 1000 nM
SMILES: Nc1ncn(C2CC(O)C(CO)O2)c(=O)n1 (configuration not stated) + Cc1ccccc1N=Nc1ccc(NC(=O)c2ccnn2C)c(C)c1
viability, T/C [36]: 94.4%
viability, T/C [37]: 98.1%
viability, T/C [6]: 93.4%
viability, T/C [7]: 98.2%
viability, T/C [8]: 93.5%
viability, T/C [9]: 86.4%
viability, T/C [38]: 102%
viability, T/C [39]: 104%
viability, T/C [12]: 103%
viability, T/C [13]: 94.4%
viability, T/C [14]: 93%
viability, T/C [15]: 82.8%
viability, T/C [40]: 106%
viability, T/C [41]: 98.5%
viability, T/C [18]: 94%
viability, T/C [19]: 93%
viability, T/C [20]: 87.2%
viability, T/C [21]: 89%
viability, T/C [42]: 97.4%
viability, T/C [43]: 96.3%
viability, T/C [24]: 94.9%
viability, T/C [25]: 92.9%
viability, T/C [26]: 85.7%
viability, T/C [27]: 83.5%
viability, T/C [44]: 84.7%
viability, T/C [45]: 82.1%
viability, T/C [30]: 84.3%
viability, T/C [31]: 84.3%
viability, T/C [32]: 78%
viability, T/C [33]: 76%

IC50 (curve of compound): 244 nM and 546 nM and 421 nM
SMILES: CC1COCCN1c1cc(-c2ccnn2C)c2ccnc(-c3ccn[nH]3)c2n1 (configuration not stated)
viability, T/C (compound 0.00316 µM): 99.8% and 104% and 109%
viability, T/C (compound 0.01 µM): 100% and 108% and 107%
viability, T/C (compound 0.0316 µM): 106% and 101% and 96.2%
viability, T/C (compound 0.1 µM): 98.3% and 103% and 91.9%
viability, T/C (compound 0.316 µM): 36.1% and 71.9% and 59.7%
viability, T/C (compound 1 µM): 12.2% and 25.8% and 17.1%

IC50 [1]: 263 nM
IC50 [2]: 247 nM
IC50 [3]: 244 nM
IC50 [4]: 201 nM
IC50 [5]: < 9.49 nM
SMILES: O=C(C=Cn1cnc(-c2cc(C(F)(F)F)cc(C(F)(F)F)c2)n1)NNc1cnccn1 + Cc1cncc(-c2nc(NCCc3c[nH]c4ccccc34)c3ncn(C(C)C)c3n2)c1
viability, T/C (second compound 0.1 µM, first compound 0.00949 µM): 101%
viability, T/C (second compound 0.1 µM, first compound 0.03 µM): 102%
viability, T/C (second compound 0.1 µM, first compound 0.0949 µM): 162%
viability, T/C (second compound 0.1 µM, first compound 0.3 µM): 40.8%
viability, T/C (second compound 0.1 µM, first compound 0.949 µM): 30.8%
viability, T/C (second compound 0.1 µM, first compound 3 µM): 22.6%
viability, T/C (second compound 0.316 µM, first compound 0.00949 µM): 108%
viability, T/C (second compound 0.316 µM, first compound 0.03 µM): 116%
viability, T/C (second compound 0.316 µM, first compound 0.0949 µM): 128%
viability, T/C (second compound 0.316 µM, first compound 0.3 µM): 36.3%
viability, T/C (second compound 0.316 µM, first compound 0.949 µM): 26.3%
viability, T/C (second compound 0.316 µM, first compound 3 µM): 23.3%
viability, T/C (second compound 1 µM, first compound 0.00949 µM): 95.3%
viability, T/C (second compound 1 µM, first compound 0.03 µM): 114%
viability, T/C (second compound 1 µM, first compound 0.0949 µM): 118%
viability, T/C (second compound 1 µM, first compound 0.3 µM): 37.1%
viability, T/C (second compound 1 µM, first compound 0.949 µM): 30.3%
viability, T/C (second compound 1 µM, first compound 3 µM): 25.3%
viability, T/C (second compound 3.16 µM, first compound 0.00949 µM): 83.8%
viability, T/C (second compound 3.16 µM, first compound 0.03 µM): 95.4%
viability, T/C (second compound 3.16 µM, first compound 0.0949 µM): 106%
viability, T/C (second compound 3.16 µM, first compound 0.3 µM): 22.2%
viability, T/C (second compound 3.16 µM, first compound 0.949 µM): 32.2%
viability, T/C (second compound 3.16 µM, first compound 3 µM): 23.9%
viability, T/C (second compound 10 µM, first compound 0.00949 µM): 11.4%
viability, T/C (second compound 10 µM, first compound 0.03 µM): 7.81%
viability, T/C (second compound 10 µM, first compound 0.0949 µM): 6.35%
viability, T/C (second compound 10 µM, first compound 0.3 µM): 7.34%
viability, T/C (second compound 10 µM, first compound 0.949 µM): 7.72%
viability, T/C (second compound 10 µM, first compound 3 µM): 8.99%
